# Laboratory results reported in US20260272908A1 (VANDERBILT UNIVERSITY, priority 2023, published 2026).
# “Also recorded” adds a separate entry of the source.
# Key:
# wild-type mice = assay: Histopathology of major organs in wild-type mice; assay type: in vivo, mouse; settings: 4 mg/L in drinking water, 2 weeks
# Experimental: Hematoxylin and eosin images were obtained from wild-type mice treated with either dimethyl sulfoxide (DMSO) or Pyr (4 mg/L in drinking water) for a duration of 2 weeks. Scale bar=100 μm.
# (§1) One or two weeks after either DMSO or pyrvinium treatment, gastric mucosa in each group of mice was examined.
# Mist1-Kras mice = assay: Pyrvinium treatment of Mist1-Kras mice (metaplasia progression to dysplasia, gastric corpus histology and immunostaining); assay type: in vivo, mouse
# Experimental: FIG. 5B schematically illustrates the H&E (top) and immunostaining for UEA1 (middle) and Ki-67 (bottom) in the wild type mice treated with Pyr for 2 weeks and Mist1-Kras mice treated with DMSO or Pyr for 1 or 2 weeks. FIG. 5C schematically illustrates the quantitation of Ki-67-positive cells per 20× field. […] Mean±standard deviation. Unpaired t-test or one-way ANOVA with Tukey's multiple comparisons. ns, not significant. *P<0.05. **P<0.01. ***P<0.001. Scale bar=100 μM.
# To prepare formaldehyde-fixed paraffin-embedded (FFPE) organoids/spheres, Matrigel domes containing organoids/spheres were fixed in 4% PFA at room temperature for 30 min. The fixed organoids were embedded in HistoGel™ (Thermo Fisher Scientific) followed by a wash in PBS for 1 min and processed according to a standard histological protocol for paraffin embedding. Human tissues were fixed in 10% neutral buffered formalin (NBF) for 1 week at room temperature and mouse tumor tissues were fixed in 4% paraformaldehyde (PFA) solution overnight at 4° C. The fixed tissues were transferred into 70% ethanol and processed according to a standard histological protocol for subsequent paraffin embedding. Four to five micrometers of organoid/sphere or tissue paraffin sections were de-paraffinized in Histoclear solution (Electron Microscopy Services) and rehydrated through a series of ethanol (100%, 95% and 75%).
# Antigen retrieval was performed using a pH 6 or pH 9 target retrieval solution (Dako) in a pressure cooker for 15 min and cooled for 1 hour. For immunofluorescence staining, each section was incubated in serum-free protein block solution (Dako) at room temperature for 1.5 hours. Primary antibodies were diluted in Antibody Diluent with background reducing components (Dako) and applied to sections, then incubated overnight at 4° C. Slides were washed in PBS for 5 min three times and secondary antibodies diluted in Antibody Diluent (Dako) were applied to each section. Sections were incubated at room temperature for 1 hour and PBS with Hoechst (1:5000) was applied to the sections for 5 min for nuclei counterstaining. Slides were washed in PBS for 5 min three times, mounted with ProLong™ Gold Antifade Mountant (ThermoFisher) and cover slipped. All fluorescence images were acquired using a Zeiss Axio Imager M2 microscope with Axiovision digital imaging system or scanned using the Aperio Versa 200 Fluorescent Slide Scanner (Leica) at the Vanderbilt Digital Histology Shared Resource. Preparation and overlay of fluorescence images were performed using Adobe Photoshop.
# For immunohistochemical staining, sections were blocked in Peroxidase Blocking Solution (Vector Laboratories) at room temperature for 20 min followed by serum-free protein block solution (Dako) at room temperature for 1.5 hours. Primary antibodies were diluted in Antibody Diluent with background reducing components (Dako) and applied to sections, then incubated overnight at 4° C. Horseradish-peroxidase (HRP)-conjugated secondary antibodies were applied to sections and incubated for 15 min at room temperature followed by three washes in PBS for 5 min each. ImmPRESS polymer detection reagent and ImmPACT DAB substrate kits (Vector Laboratories) were used for antibody detection. Images were scanned on a SCN400 slide scanner (Leica) at 20× magnification.
# as §1
# phospho-STAT3 (p-STAT3) = assay: Western blot for phospho-STAT3 in Meta3 and Meta4 organoids; assay type: cell-based, mouse
# Experimental: FIG. 3C-3D show the Western blot analysis for p-STAT3 and p-ERK in Meta3 and Meta4 organoids (FIG. 3C) and ratios of p-STAT3/total STAT3 and p-ERK/total ERK (FIG. 3D). […] FIG. 3F-3G show phase-contrast images of Meta4 organoids treated with DMSO, Pyr (100 nM), STAT3-IN-1 (1 μM), Stattic (2 μM), and Cryptotanshinone (CPT) (5 μM) for 3 days (FIG. 3F), and quantitation of organoid diameters before and after treatment (FIG. 3G). FIG. 3H-3I show phase-contrast images of Meta4 organoids treated with DMSO, trametinib (Tra), STAT3-IN-1, combination of Tra and STAT3-IN-1, and Pyr, for 3 days (FIG. 3H), and quantitation of organoid diameters before and after treatment (FIG. 3I). FIG. 3J-3K show western blot for p-STAT3 and p-ERK after treatment of Tra, Pyr, and SSTC3 (FIG. 3J) and ratios of p-STAT3/t-STAT3 and p-ERK/t-ERK (FIG. 3K). […] Relative quantification of each gene expression level was normalized to GAPDH gene expression. Shading scale represents the mRNA expression values. FIG. 3M show representative mRNA of Pim-1 and Cyclin-B1 after treatment. Mean±standard deviation. […] Scale bar=500 μM.
# Total proteins were extracted from organoids using radioimmunoprecipitation assay buffer (10 mmol/L Tris-HC, pH 7.2, 150 mmol/L NaCl, 5 mmol/L EDTA, 0.1% sodium dodecyl sulfate, 1.0% Triton X-100, 1% deoxycholate) with protease inhibitors. The protein concentration was measured The Bio-Rad Protein Assay (Bio-Rad Laboratories, Hercules, CA). 5 to 10 μg of total protein was loaded onto 12.5% or 10% sodium dodecyl sulfate/polyacrylamide gel electrophoresis (PAGE) and transferred onto polyvinylidene difluoride membranes (Millipore, Billerica, MA). […] After washes with TBS-T, chemiluminescence was detected with an Amersham Imager 680 instrument (GE Healthcare) after 1 mL of the SuperSignal West Femto Maximum Sensitivity Substrate (ThermoFisher) was applied to the membranes.
# [1] = Mist1-Kras mice 3 months after tamoxifen, pyrvinium 1 or 2 weeks
# [2] = Mist1-Kras mice, pyrvinium 2 weeks
structure (smiles),measurement,setting,value
Cc1cc(/C=C/c2ccc3cc(N(C)C)ccc3[n+]2C)c(C)n1-c1ccccc1 [pyrvinium],"histopathology of major organs (stomach, esophagus, liver, kidney, heart, lung, spleen)",wild-type mice,did not induce any noticeable histopathological abnormalities; also recorded: unaffected
same,acid-secreting parietal cells in corpus mucosa,Mist1-Kras mice; [1],gradually repopulated the corpus mucosa
same,number of hyperplastic foveolar glands with UEA1 and Ki-67 positive proliferating cells,Mist1-Kras mice; [1],significantly decreased
same,CD4^+ T cell population,Mist1-Kras mice; [2],dramatic decrease
same,CD8^+ T cells,Mist1-Kras mice; [2],did not show a significant difference
same,CD19^+ B cells,Mist1-Kras mice; [2],did not show a significant difference
same,CD163-positive M2-macrophages,Mist1-Kras mice; [2],significantly decreased
same,NK cells,Mist1-Kras mice; [2],significantly decreased
same,"Pim-1 (immunostaining, gastric corpus)",Mist1-Kras mice; [2],downregulation
same,number of dysplastic glands,Mist1-Kras mice; [2],significant decrease
same,"p-STAT3 (immunostaining, gastric corpus)",Mist1-Kras mice; [2],downregulation
same,total number of CD3^+ T cells,Mist1-Kras mice; [2],decreased
same,phosphorylation of STAT3^Y705,phospho-STAT3 (p-STAT3); Meta3,reduced phosphorylation
same,phosphorylation of STAT3^Y705,"phospho-STAT3 (p-STAT3); Meta4, 3 days",significant reduction
